Earlier results on three compounds are cited in US6372707B1, “Cleaning compositions” (Lever Brothers Company, division of Conopco, Inc., priority 1997, dated 2002).

The conditions of this series: for Water Solubility (g/100 g): grams of solid to form a saturated solution in 100 grams of water at 20° C.

Consider `O=BO[O-].[Na+]` [Sodium perborate anhydrous], for which the “Water Solubility (g/100 g)” value was 3.7 g/100 g.

`O=P(O)(O)OP(=O)(O)OP(=O)(O)O` [Sodium tripolyphosphate anhydrous]: the “Water Solubility (g/100 g)” value is listed as 15 g/100 g.

For the compound `NC(N)=O` [Urea], the “Water Solubility (g/100 g)” value was above 100 g/100 g. Moreover, the solubility in water result (at 20° C.) is recorded as “exceeding 100 gms per 100 ml water”.
